PMC8900822 (Acta Crystallographica. Section D, Structural Biology, 2022)
pKi: −log10 of the molar value.

Assays:
[1] = biological target: VhCAα (Vibrio cholerae, UniProt Q9KMP6); assay: biochemical
[2] = biological target: hCA II (Homo sapiens, UniProt P00918); assay: biochemical
[3] = biological target: mtCA 02 (Mycobacterium tuberculosis, UniProt P9WPJ9); assay: biochemical
[4] = biological target: T1, hCA IX (Homo sapiens, UniProt Q16790); assay: biochemical
T1 construct: made in house

[5] = biological target: hCA I (Homo sapiens, UniProt P00915); assay: Stopped-flow CO2-hydration assay, hCA I
[6] = biological target: T2, mtCA 03 (Mycobacterium tuberculosis, UniProt P96878); assay: biochemical
T2 sequence (P96878 550-764): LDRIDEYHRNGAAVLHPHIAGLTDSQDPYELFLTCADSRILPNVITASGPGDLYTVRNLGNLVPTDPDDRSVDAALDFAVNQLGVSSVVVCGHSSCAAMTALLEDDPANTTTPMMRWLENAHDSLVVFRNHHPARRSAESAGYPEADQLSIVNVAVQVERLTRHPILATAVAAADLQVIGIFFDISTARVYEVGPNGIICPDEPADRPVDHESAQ

[7] = biological target: T3, SazCA (Sulfurihydrogenibium azorense, UniProt C1DTU5); assay: biochemical
T3 sequence (C1DTU5 19-254): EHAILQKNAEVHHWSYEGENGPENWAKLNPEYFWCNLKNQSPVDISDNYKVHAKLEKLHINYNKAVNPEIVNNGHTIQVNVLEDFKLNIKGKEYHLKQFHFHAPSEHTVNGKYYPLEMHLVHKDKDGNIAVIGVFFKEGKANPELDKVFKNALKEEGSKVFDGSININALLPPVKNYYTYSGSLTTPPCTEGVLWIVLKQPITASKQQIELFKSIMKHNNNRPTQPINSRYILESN

[8] = biological target: VhCAβ (Vibrio cholerae, UniProt A0A086SLX8); assay: biochemical
[9] = biological target: T4, TweCA (Thalassiosira weissflogii, UniProt Q5U9J1); assay: biochemical
T4 sequence (Q5U9J1 1-281): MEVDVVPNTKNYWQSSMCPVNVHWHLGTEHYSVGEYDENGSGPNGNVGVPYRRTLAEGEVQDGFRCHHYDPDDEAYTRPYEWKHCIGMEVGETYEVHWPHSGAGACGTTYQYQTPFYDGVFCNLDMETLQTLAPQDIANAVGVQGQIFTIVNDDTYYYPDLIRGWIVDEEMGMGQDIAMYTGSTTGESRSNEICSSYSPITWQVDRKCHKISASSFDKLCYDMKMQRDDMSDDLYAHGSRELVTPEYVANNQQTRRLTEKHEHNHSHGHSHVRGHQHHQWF

[10] = biological target: hCA XII (Homo sapiens, UniProt O43570); assay: biochemical
[11] = biological target: T5, SmCA (Schistosoma mansoni, UniProt A0A4Y5UX87, S271R); assay: biochemical
T5 sequence (A0A4Y5UX87 21-298 S271R): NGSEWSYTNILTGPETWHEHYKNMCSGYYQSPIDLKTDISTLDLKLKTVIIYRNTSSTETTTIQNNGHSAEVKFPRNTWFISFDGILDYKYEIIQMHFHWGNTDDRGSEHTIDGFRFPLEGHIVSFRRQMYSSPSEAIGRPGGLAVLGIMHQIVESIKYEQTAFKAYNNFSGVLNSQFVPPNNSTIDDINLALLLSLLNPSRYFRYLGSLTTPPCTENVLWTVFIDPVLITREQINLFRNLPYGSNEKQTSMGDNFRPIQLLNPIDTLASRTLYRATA

[12] = biological target: BpsCAγ (Burkholderia pseudomallei, UniProt Q63SQ4); settings: pH 8.3
[13] = tested on: carbonic anhydrase (CA); set-up: method as in Lankas & Peter, 1992; settings: in vivo study, ref Lankas & Peter, 1992; cited from earlier work
[14] = biological target: BpsCAβ (Burkholderia pseudomallei, UniProt Q63Y17); settings: pH 8.3
Chain of BpsCAβ (Q63Y17 1-256): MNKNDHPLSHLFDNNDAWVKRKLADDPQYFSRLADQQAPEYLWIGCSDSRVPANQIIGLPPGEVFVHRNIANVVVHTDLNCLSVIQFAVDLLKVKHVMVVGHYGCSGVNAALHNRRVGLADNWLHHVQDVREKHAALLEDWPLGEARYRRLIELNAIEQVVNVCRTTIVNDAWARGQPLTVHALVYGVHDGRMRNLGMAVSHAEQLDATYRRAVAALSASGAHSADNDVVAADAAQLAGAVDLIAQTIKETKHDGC

Chain of VhCAα (Q9KMP6 entry or part of it): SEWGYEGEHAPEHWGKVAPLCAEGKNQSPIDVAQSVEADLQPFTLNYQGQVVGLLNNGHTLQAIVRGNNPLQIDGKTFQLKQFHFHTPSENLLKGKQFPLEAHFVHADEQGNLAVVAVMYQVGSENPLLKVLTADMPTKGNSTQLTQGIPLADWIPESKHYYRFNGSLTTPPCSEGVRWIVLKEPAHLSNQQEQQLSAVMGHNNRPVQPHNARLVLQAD
Chain of hCA XII (O43570 25-354): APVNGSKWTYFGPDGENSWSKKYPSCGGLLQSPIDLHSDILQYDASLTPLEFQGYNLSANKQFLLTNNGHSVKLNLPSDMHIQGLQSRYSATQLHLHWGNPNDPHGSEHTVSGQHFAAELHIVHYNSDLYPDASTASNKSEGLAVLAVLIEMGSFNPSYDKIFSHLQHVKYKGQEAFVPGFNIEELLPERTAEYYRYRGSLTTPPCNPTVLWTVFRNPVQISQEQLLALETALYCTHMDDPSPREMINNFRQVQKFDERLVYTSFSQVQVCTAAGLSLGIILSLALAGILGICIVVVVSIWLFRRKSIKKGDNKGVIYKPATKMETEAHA
Chain of BpsCAγ (Q63SQ4 1-174): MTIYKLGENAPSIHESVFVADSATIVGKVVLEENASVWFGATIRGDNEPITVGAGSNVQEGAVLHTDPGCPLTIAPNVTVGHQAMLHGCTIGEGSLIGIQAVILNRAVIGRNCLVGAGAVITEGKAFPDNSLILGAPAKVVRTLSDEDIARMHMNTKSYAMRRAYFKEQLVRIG
Chain of VhCAβ (A0A086SLX8 entry or part of it): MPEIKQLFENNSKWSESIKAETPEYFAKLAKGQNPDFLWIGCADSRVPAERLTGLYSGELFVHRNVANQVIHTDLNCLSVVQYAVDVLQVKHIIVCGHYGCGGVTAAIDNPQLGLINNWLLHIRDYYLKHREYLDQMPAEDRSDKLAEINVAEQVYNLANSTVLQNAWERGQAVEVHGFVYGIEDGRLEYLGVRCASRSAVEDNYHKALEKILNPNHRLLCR
Chain of hCA I (P00915 whole entry): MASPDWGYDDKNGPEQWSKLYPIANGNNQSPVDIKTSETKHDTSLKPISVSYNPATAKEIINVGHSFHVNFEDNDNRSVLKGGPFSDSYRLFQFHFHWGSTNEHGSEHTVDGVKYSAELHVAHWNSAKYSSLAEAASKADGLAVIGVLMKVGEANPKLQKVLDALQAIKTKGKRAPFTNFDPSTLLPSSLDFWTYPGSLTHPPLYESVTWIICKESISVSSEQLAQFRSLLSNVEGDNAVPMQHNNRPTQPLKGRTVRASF
Chain of mtCA 02 (P9WPJ9 whole entry, looked up): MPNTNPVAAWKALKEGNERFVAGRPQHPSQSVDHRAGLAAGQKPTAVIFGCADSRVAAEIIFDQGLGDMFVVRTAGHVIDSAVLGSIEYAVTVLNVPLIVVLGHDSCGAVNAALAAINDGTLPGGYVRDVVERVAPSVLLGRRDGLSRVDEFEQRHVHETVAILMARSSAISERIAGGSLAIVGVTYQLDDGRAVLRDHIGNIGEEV

Nc1cc(C(Cl)=C(Cl)Cl)c(S(N)(=O)=O)cc1S(N)(=O)=O [Clorsulon, 4-Amino-6-(1,2,2-trichlorovinyl)benzene-1,3-disulfonamide]
pKi [1]: 6.54 | pKi [2]: 7.23 | pKi [3]: 8.54 | pKi [4]: 6.86 | pKi [5]: 5.35 | pKi [6]: 6.08 | pKi [7]: 8.11 | pKi [8]: 6.04 | pKi [9]: 7.02 | pKi [10]: 7.11 | pKi [11]: 6.65 | pKi [12]: 5.60 | carbonic anhydrase (CA) inhibitory activity in rats [13]: weak | pKi [14]: 6.65
